The source of these data is article PMC6128562, “Evaluation of cytotoxicity features of antimicrobial peptides with potential to control bacterial diseases of citrus” (PLoS ONE, 2018).

The test system of series [1] is human erythrocytes. Conditions: cited from earlier work. An excerpt: Ocellatin4 ([…]-NH(2)) is a cytolytic peptide obtained from skin secretion of the South American frog Leptodactylus ocellatus. The analogue of this peptide named as, Ocellatin4-analogue ([…]) has positive charge at its N-terminus (lysine residue), similarly to K^0-W^6-Hy-a1.
The subject of series [2] is Galleria mellonella larvae. In words: Toxicity in Galleria mellonella larvae. Format: in vivo. Conditions: for Median (%survival): over Experiments 1 and 2; for survival percentages of larvae: at 64 and 128 μM. The procedure:
The peptides citrus–amp1 and citrus–amp2 were selected for toxicity assay in G. mellonella. Larvae with 0.15 to 0.20 g were randomly selected for the experiments and were kept without food in Petri plates at 37°C in the dark for 24 h prior to use. Each larva was injected with 10 μL of peptides at 64 and 128 μM into the last proleg using a Hamilton micro-syringe. […] The larvae were incubated at 37°C and survival was evaluated daily for 7 days. Group of 8–9 larvae was used to each concentration of peptides and 10 μL of PBS was injected in the control group. Two independent experiments were performed.

Series [3] has as its system Sinorhizobium meliloti SEMIA 165. Format: cell-based. Conditions: ND = higher than the concentrations evaluated; for MIC S. meliloti: microplate, inoculum 10^4 CFU/mL in PBS, peptide 1–64 μM, 595 nm, three replicates; for MBC S. meliloti: serial dilution, microdrop technique, 28°C three days. The text has this: (§1) Two important citrus pathogenic bacteria were addressed in our study: X.citri (isolate 306), the causal agent of citrus canker, and CaLas, causal agent of HLB. Since the latter cannot be cultivated in vitro, surrogates phylogenetically related to CaLas were used in the assays. The surrogates chosen were S. meliloti SEMIA 165 (= USDA 1002) and A. tumefaciens (GV3101/PMP90), provided by FEPAGRO (Fundação Estadual de Pesquisa Agropecuária) and by Dr. Janete Desidério, UNESP (Universidade Estadual Paulista, Jaboticabal, São Paulo, Brazil). The effect of the AMPs on Methylobacterium sp., an endophytic commonly found at citrus in Brazil and kindly provided by Dr. Wellington Luiz Araújo, Instituto de Ciências Biomédicas, Universidade de São Paulo, Brazil, was also assessed. Methylobacterium sp. and X.citri was cultured in NBY solid medium and then in NBY liquid medium according to Amaral et al. for 48 hours at 28°C and 180 rpm. S. meliloti and A. tumefaciens were grown in YM medium (Yeast Mannitol Medium) (0.5 g/L KH2PO4, 0.2 g/L MgSO4 7.H2O, 0.1g/L NaCl, 10 g/L mannitol, 0.5 g/L yeast extract, 9g/L agar, pH 6.8) and then in YM liquid medium for 48 hours at 28°C and 180 rpm. In addition to the in vitro assays, X.citri::GFP [35], obtained from Dr. Adrián A. Vojnov (Instituto de Ciencia y Tecnología Dr. Cesar Milstein, Fundación Pablo Cassará, Consejo Nacional de Investigaciones Científicas y Técnicas (CONICET), Buenos Aires / Argentina), was used for the in vivo assays.
(§2) Antimicrobial peptide activity was performed in vitro using a microliter plate assay (96 well cell culture cluster—Costar®3599). Fifty microliters of inoculum at 10^4 CFU/mL prepared in PBS buffer (Phosphate buffered saline) was mixed with 50 μL of the peptide diluted in distilled water filter sterilized (dH2O). The final concentration of peptide evaluated ranged from 1–64 μM, and hylin-a1 and PBS were used as positive and negative control for AMP, respectively. […] Three replicates were prepared for each concentration evaluated.
(§3) At the end of the growth incubation, minimum bactericidal concentration (MBC) for each organism was determined by serial dilution using the microdrop technique, as described elsewhere. The Petri dishes were maintained at 28°C for three days to obtain CFU/mL.

Series [4] concerns Xanthomonas citri subsp. citri (X.citri, isolate 306). In kind it is cell-based. Conditions: ND = higher than the concentrations evaluated.
From the text: as §1, §2, §3

The test system of series [5] is Methylobacterium sp. Format: cell-based. Conditions: ND = higher than the concentrations evaluated.
From the text: as §1, §2, §3

Series [6] relates to U87 MG cells. Kind of series: Cytotoxicity in U87 MG cells (alamarBlue). Format: cell-based, human. Conditions: concentrations of 1–128 μM, 24 h. The procedure: U87 MG, a human Glioblastoma cell line frequently used as a model for cytotoxicity evaluation was adopted in our study for the peptides citrus–amp1 and citrus–amp2. Cells were plated in 96 wells plate (5x10^4 cells per well), incubated overnight and maintained in a humidified atmosphere at 37°C and 5% CO2. After the incubation period, cells were treated with peptides varying from 1μM to 128 μM and then incubated for 24h. Untreated and cells treated with DMSO (dimethyl sulfoxide) were used as positive and negative control for the viability of U87 MG cells. Six replicates were done by each concentration.
Cytotoxicity was performed using alamarBlue® cell viability reagent, a cell health indicator, through the reduction of […] of living cells. Viable cells convert Resazurin (blue) to resorufin, a compound that emits red fluorescent light. Alamar Blue medium was prepared by mixing medium with alamarBlue solution (Thermo Ficher Scientific) in a ratio of 10:1. After treatment with the peptides for 24 h, the medium was discarded, and Alamar Blue medium (100 μL) was transferred to a 96-well microplate. The microplates were incubated with Alamar Blue at 37°C for 4 h, and absorbance was measured using Epoch2 Microplate Reader (Biotek) in 570 nm. Cell viability was calculated using the ratio of the absorbance between treated and untreated cells and the data were expressed as percentages. […]
Background: The colour change of resazurin is a common sign of viable cells or microbes.

Series [7] deals with tobacco leaves. Conditions: 24 hpi; leaves started to dry out 12 hpi; cited from earlier work. On the procedure: The peptide Hylin-1 and PBS buffer were used as positive and negative controls of the phytotoxicity assay, respectively. At seven days post inoculation (7 dpi), visual evaluation was performed in detached leaves. […] Makovitzki et al. assessed the toxicity of peptide C14-KLLK in tobacco leaves.

[8] abbreviates: 64 µM, Experiment 1, 7 days, n=8–9 larvae.
The mark [9] stands for this setting: 64 µM, Experiment 2, 7 days, n=8–9 larvae.
Setting [10] is: 128 µM, Experiment 1, 7 days, n=8–9 larvae.
[11] abbreviates: 128 µM, Experiment 2, 7 days, n=8–9 larvae.
Where [12] appears, read: 10 μL of 64 μM injected, 37°C, 7 days, mean±SD of two experiments, 8–9 larvae.
The mark [13] stands for this setting: 10 μL of 128 μM injected, 37°C, 7 days, mean±SD of two experiments, 8–9 larvae.
Where [14] appears, read: microplate, inoculum 10^4 CFU/mL in PBS, peptide 1–64 μM, 595 nm, three replicates.
Where [15] appears, read: serial dilution, microdrop technique, 28°C three days.

Where no end group is shown, it is not given here.

As to “GLLDFVTGVGKDIFAQLIKQI-NH(2) [ocellatin 4, cytolytic peptide from skin secretion of the frog Leptodactylus ocellatus]”, the “activity on human erythrocytes at” value in series [1] is 14.3 mmol/L.

For IETFLKQLRSAANKIVGL [Citrus-amp1], the “% survival” value was 88.9% in series [2] (setting [8]); 88.9% in series [2] (setting [9]); 100% in series [2] (setting [10]); 88.9% in series [2] (setting [11]); 88.89 ± 0% in series [2] (setting [12]); 94.50 ± 7.85% in series [2] (setting [13]). Moreover, the entries for the “Median (%survival)” value in series [2] (64 µM) and in series [2] (128 µM) were 88.9% and 94.5%, respectively. For the same substance, the “survival percentages of larvae” value in series [2] is greater than 87%.

In the case of KIFGAIWPLALGALKNLIK [K^0-W^6-Hy-a1], in series [3], the “MIC S. meliloti” value was found to be 4 µM and the “MBC S. meliloti” value stood at 62 µM. Besides, the “MIC X.ciri” value in series [4] (setting [14]) was determined as 2 µM. Also, the “MBC X.ciri” value in series [4] (setting [15]) stood at 2 µM. Further, the “MIC Met sp.” value in series [5] (setting [14]) was 4 µM. Further, the “MBC Met sp.” value in series [5] (setting [15]) was 8 µM.

Take LESLASSAVRTANKARAKL [Citrus-amp2]: in series [6], the “viability percentages of cells” value was greater than 70%. For the same substance, the “% survival” value in series [2] (setting [8]) is 100%; in series [2] (setting [9]), 75%; in series [2] (setting [10]) it was 100%; in series [2] (setting [11]), 87.5%; in series [2] (setting [12]) it was 87.50 ± 17.68%; in series [2] (setting [13]), 93.75 ± 8.84%. Further, the “Median (%survival)” value was 87.5% in series [2] (64 µM) and 93.8% in series [2] (128 µM). Besides, the “survival percentages of larvae” value in series [2] was greater than 87%. In addition, in series [3], the “MIC S. meliloti” value turned out to be 64 µM. In addition, the “MBC S. meliloti” value in series [3] was 64 µM.

For mellittin, the “toxicity in tobacco leaves at the inoculation point” value in series [7] is recorded as “necrosis”.
